From patent US8673908B2, “Kynurenine production inhibitor” (Kyowa Hakko Kirin Co., Ltd., priority 2008, dated 2014)
Like-named read-outs stand apart in the source and are kept apart here. Values belong to the compound of their own block, whether it stands above or below them.

Experiments:
mouse melanoma cells = conditions: cited from earlier work
T cells = conditions: in the presence of IDO-expressing cancer cells and dendritic cells; cited from earlier work
allogeneic pregnant mice = conditions: cited from earlier work
kynurenine production = conditions: competes with tryptophan; cited from earlier work
[1] = system: kynurenine production in IFN-γ-treated KATO-III cells; test: Inhibitory activity on kynurenine production (Test Example 1); format: cell-based; conditions: Homo sapiens, IFN-γ treatment, culture for 96 hours, read-out: IC50 value, inhibition of kynurenine production
Method in brief: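 Read-out is absorbance at 480 nm of medium treated with trichloroacetic acid, then p-dimethylaminobenzaldehyde, to quantify kynurenine. DMSO-only wells with and without IFN-γ serve as references. Cells were KATO-III, 2,000 per well, 96 h at 37 °C/5% CO2 with compound (DMSO ≤0.1%) and IFN-γ at 31.25 ng/mL in the added suspension.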

[2] = system: 4T1 mouse breast cancer cells; test: Antitumor effect in mice transplanted with 4T1 cells (Test Example 2); format: in vivo, BALB/c mice; conditions: for T/C: oral, once or twice daily
Description: 5-week-old BALB/c mice (male, supplied from CLEA Japan, Inc.) were purchased. After quarantine and stabilization, mice which favorably gained their weight and had no apparent abnormalities were used in the test. The test started from 6 weeks of age. The mice were housed in groups of 6 mice per plastic cage with free access to commercial solid feed and water in a breeding room in which the room temperature was 19° C. to 25° C., the humidity was 30 to 70% and the light was kept on for 12 hours a day (7:00 a.m. to 7:00 p.m.).
The abdominal hair of the BALB/c mice was shaved on the day before the test. Transplantation was performed by subcutaneous injection of a suspension containing 1×10^6 4T1 mouse breast cancer cells in 100 μL of phosphate buffered saline (PBS) from the shaved region of each mouse.
When the tumor volume reached 30 to 80 mm^3, the mice were divided into groups so that the average tumor volume of each group was equal. The test compound was suspended in 0.5% (w/v) methylcellulose 400 cP (manufactured by Wako Pure Chemical Industries, Ltd.), and the suspension was orally administered to each mouse of the corresponding group once or twice daily. The tumor volume was calculated using the formula (a×b^2)/2 (a: tumor major axis, b: tumor minor axis). The tumor volume (V) was measured twice or three times a week, and the tumor growth rate (V/V0) was calculated by division of the tumor volume (V) by the tumor volume on the day of the first administration (V0). The T/C (treatment group/control group) value was calculated by division of the V/V0 value of the test compound treatment group by the V/V0 value of the control group, based on which the antitumor effect was evaluated.
Statistical analysis was performed on the tumor volumes of the control group and the treatment group, using student's T-test. If the p value was <0.05, we considered the difference significant.

[3] = Day 4 and Day 7 after administration

Structure (SMILES): Cn1cc(C[C@H](N)C(=O)O)c2ccccc21 [Compound 1-MT, 1-methyltryptophan]
antitumor effect (mouse melanoma cells; immunodeficient mice): disappears | antitumor effect (mouse melanoma cells; mice bearing mouse melanoma cells): shows an antitumor effect | suppression of T cell proliferation (T cells): cancelled | MHC-restricted rejection (allogeneic pregnant mice): induces major histocompatibility complex (MHC)-restricted rejection | effect on kynurenine production (kynurenine production): inhibits kynurenine production

Structure (SMILES): CC(Oc1nc2ccccc2nc1NS(=O)(=O)c1cccc(Cl)c1Cl)c1cccnc1 (centres unmarked) [Compound 16, 2,3-dichloro-N-{3-[1-(pyridin-3-yl)ethoxy]quinoxalin-2-yl}-benzenesulfonamide]
IC50 [1]: < 1 µM | T/C ([2]; Day 3, dose 100 mg/kg): 0.62 | tumor growth inhibition (in words) ([2]; Day 3 and Day 7 after administration): significantly inhibited tumor growth | T/C ([2]; Day 7, dose 100 mg/kg): 0.58

Structure (SMILES): O=S(=O)(Nc1nc2ccccc2nc1OC(c1cccnc1)C(F)(F)F)c1cccc(Cl)c1Cl (centres unmarked) [Compound 20, 2,3-dichloro-N-{3-[2,2,2-trifluoro-1-(pyridin-3-yl)ethoxy]-quinoxalin-2-yl}benzenesulfonamide]
IC50 [1]: < 1 µM | T/C ([2]; Day 4, dose 10 mg/kg): 0.68 | tumor growth inhibition (in words) [2, 3]: significantly inhibited tumor growth | T/C ([2]; Day 7, dose 10 mg/kg): 0.69

Structure (SMILES): CCCS(=O)(=O)Nc1nc2ccccc2nc1OC(c1cccnc1)C(F)(F)F (centres unmarked) [Compound 179, N-{3-[2,2,2-trifluoro-1-(pyridin-3-yl)ethoxy]quinoxalin-2-yl}propane-1-sulfonamide]
IC50 [1]: < 1 µM | T/C ([2]; Day 4, dose 0.1 mg/kg): 0.76 | tumor growth inhibition (in words) [2, 3]: significantly inhibited tumor growth | T/C ([2]; Day 7, dose 0.1 mg/kg): 0.50

Structure (SMILES): CCCS(=O)(=O)Nc1nc2ccccc2nc1OC(C(F)(F)F)C1(O)CCOCC1 (centres unmarked) [Compound 352, N-{3-[2,2,2-trifluoro-1-(4-hydroxytetrahydro-2H-pyran-4-yl)ethoxy]quinoxalin-2-yl}propane-1-sulfonamide]
IC50 [1]: 1 to 10 µM

Structure (SMILES): CCCS(=O)(=O)Nc1nc2ccccc2nc1OC(C(F)(F)F)C1(OC)CCOCC1 (centres unmarked) [Compound 353, N-{3-[2,2,2-trifluoro-1-(4-methoxytetrahydro-2H-pyran-4-yl)ethoxy]quinoxalin-2-yl}propane-1-sulfonamide]
IC50 [1]: < 1 µM

Structure (SMILES): CCCS(=O)(=O)Nc1nc2ccccc2nc1OC(C(F)(F)F)C1(F)CCN(C(C)=O)CC1 (centres unmarked) [Compound 354, N-{3-[2,2,2-trifluoro-1-(1-acetyl-4-fluoropiperidin-4-yl)-ethoxy]quinoxalin-2-yl}propane-1-sulfonamide]
IC50 [1]: < 1 µM

More lines, now with the values ahead:

IC50 [1]: < 1 µM
Structure (SMILES): CCCS(=O)(=O)Nc1nc2ccccc2nc1OC(C(F)(F)F)C1(F)CCN(S(C)(=O)=O)CC1 (centres unmarked) [Compound 355, N-{3-[2,2,2-trifluoro-1-(4-fluoro-1-methanesulfonylpiperidin-4-yl)ethoxy]quinoxalin-2-yl}propane-1-sulfonamide]

IC50 [1]: < 1 µM
Structure (SMILES): CCCS(=O)(=O)Nc1nc2ccccc2nc1OC(C(F)(F)F)C1(C)CCN(C(C)=O)CC1 (centres unmarked) [Compound 356, N-{3-[2,2,2-trifluoro-1-(1-acetyl-4-methylpiperidin-4-yl)-ethoxy]quinoxalin-2-yl}propane-1-sulfonamide]

IC50 [1]: < 1 µM
Structure (SMILES): CCCS(=O)(=O)Nc1nc2ccccc2nc1OC(C(F)(F)F)C1(C)CCN(S(C)(=O)=O)CC1 (centres unmarked) [Compound 357, N-{3-[2,2,2-trifluoro-1-(1-methanesulfonyl-4-methylpiperidin-4-yl)ethoxy]quinoxalin-2-yl}propane-1-sulfonamide]

IC50 [1]: 1 to 10 µM
Structure (SMILES): CCCS(=O)(=O)Nc1cc2ccccc2nc1OC(c1cccnc1)C(F)(F)F (centres unmarked) [Compound 358, N-{2-[2,2,2-trifluoro-1-(pyridin-3-yl)ethoxy]quinolin-3-yl}propane-1-sulfonamide]

IC50 [1]: 1 to 10 µM
Structure (SMILES): O=S(=O)(Nc1cc2ccccc2nc1OC(c1cccnc1)C(F)(F)F)c1ccccc1Cl (centres unmarked) [Compound 360, 2-chloro-N-{2-[2,2,2-trifluoro-1-(pyridin-3-yl)ethoxy]-quinolin-3-yl}benzenesulfonamide]

IC50 [1]: 1 to 10 µM
Structure (SMILES): O=S(=O)(Nc1nc2ccncc2nc1OC(c1cccnc1)C(F)(F)F)c1ccccc1Cl (centres unmarked) [Compound 362, 2-chloro-N-{2-[2,2,2-trifluoro-1-(pyridin-3-yl)ethoxy]-pyrido[3,4-b]pyrazin-2-yl}benzenesulfonamide]
